Values quoted from earlier work in patent publication US6548045B2, “Nitroimidazole substituted porphyrin complex” (Photochemical Co., Ltd., priority 1999, dated 2003).

Tests used:
[1] = test system: anoxic tissues in tumor; conditions: animal experiment implanting tumor
[2] = test system: anoxic tissues in tumor; conditions: in vivo
[3] = in vivo

## COCC(O)Cn1ccnc1[N+](=O)[O-] (stereo not drawn) [Misonidazole]
[1]
  efficacy compared with absence of the compound: twice times more efficacies
[2]
  efficacy in the human being: no efficacy is observed
[3]
  neurotoxicity: high neurotoxin
